In patent US20110039763A1, “TARGETED ANTIMICROBIAL MOIETIES” (C3 JIAN, INC., priority 2009, published 2011):
Entries after “also recorded” stand apart in the source; their conditions may differ.

Experiments:
microorganisms [1] = assay: Targeting peptide binding to target microorganisms (Tables 3, 10, 12); conditions: microorganism(s) the targeting peptide binds, preferably 1x PBS
microorganisms [2] = assay: Morphology, biofilm and growth disrupting peptides (Table 5); format: cell-based; design: key: A: Peptide aggregates; B: Less hyphal formation; Clumps; Diffuse clumps and small polyps; F: Diffuse growth; H: Thin; I: Growth inhibition; Microcolony formation; Rippled; Small polyps; Thick; W: Halo formation on top, microlonies on bottom
Description: In certain embodiments peptides that induce alterations in phenotype or other biological activities can also be used as antimicrobial effector moieties.

microorganisms [3] = assay: Peptide activities: targeting/binding, antimicrobial, growth or phenotype altering (Tables 7, 8); format: cell-based; conditions: peptides having multiple activities
[4] = binding in aqueous buffers that varied with peptide solubility
[5] = binding in aqueous buffers varied with peptide solubility

Substance | Target(s) (microorganisms [1]; [4]) | Organism, effect: MRSA (microorganisms [2]) | Organism, effect: S. epidermidis (microorganisms [2]) | Activities (microorganisms [3]) | Organism, effect: C. jeikeium (microorganisms [2]) | Organism, effect: M. luteus (microorganisms [2]) | Organism, effect: S. mutans (microorganisms [2]; S. mutans, class symbol) | Organism, effect: S. pneumoniae (microorganisms [2]) | Organism, effect: B. subtilis (microorganisms [2]) | Organism, effect: C. jejuni (microorganisms [2]) | Target(s) (microorganisms [1]; [5]) | Organism, effect: P. aeruginosa (microorganisms [2]; P. aeruginosa)
PF-041: peptide having multiple activities (ELLVILPGFI; Peptide with targeting and/or antimicrobial activity) | MRSA | MRSA (M) | S. epidermidis (R) | G B |  |  |  |  |  |  |  | 
PF-043: peptide having multiple activities (MIKNETAYQMNELLVIRSAYAK; Peptide with targeting and/or antimicrobial activity) | M. luteus; also recorded: C. jejuni | MRSA (R) | S. epidermidis (D) | G B | C. jeikeium (A) | M. luteus (C) |  |  |  |  |  | 
PF-045: peptide having multiple activities (LDINDYRSTY; Peptide with targeting and/or antimicrobial activity) | S. epidermidis; also recorded: E. coli; also recorded: E. faecalis; also recorded: C. jejuni | MRSA (S) |  | G B |  |  |  |  |  |  |  | 
PF-046: peptide having multiple activities (LDFYLTKHLTLML; Peptide with targeting and/or antimicrobial activity) | E. coli; also recorded: E. faecalis; also recorded: C. jeikeium | MRSA (R) | S. epidermidis (C) | G B | C. jeikeium (R) |  |  |  |  |  |  | 
PF-048: peptide having multiple activities (LYFAFKKYQERVNQAPNIEY; Peptide with targeting and/or antimicrobial activity) | S. epidermidis and M. luteus and E. coli and MRSA and C. jeikeium and C. jejuni | MRSA (W) | S. epidermidis (D) | G B | C. jeikeium (S) |  |  |  |  |  |  | 
PF-049: peptide having multiple activities (AYYLKRREEKGK; Peptide with targeting and/or antimicrobial activity) | S. epidermidis and MRSA and C. jeikeium and C. jejuni | MRSA (S) |  | G B |  |  |  |  |  |  |  | 
PF-051: peptide having multiple activities (RFFNFEIKKSTKVDYVFAHVDLSDV; Peptide with targeting and/or antimicrobial activity) | S. epidermidis and M. luteus and P. aeruginosa and C. albicans and MRSA and S. pneumoniae and E. faecalis | MRSA (D) | S. epidermidis (D) | G B |  | M. luteus (C) | S. mutans (D) | S. pneumoniae (D) |  |  |  | 
PF-052: peptide having multiple activities (QELINEAVNLLVKSK; Peptide with targeting and/or antimicrobial activity) | S. epidermidis and M. luteus and E. coli and MRSA and E. faecalis and C. jeikeium and C. jejuni | MRSA (R) | S. epidermidis (S) | G B | C. jeikeium (D) | M. luteus (A) |  |  |  |  |  | 
PF-058: peptide having multiple activities (FADQSQDNA; Peptide with targeting and/or antimicrobial activity) | S. epidermidis and M. luteus and E. coli and C. albicans and MRSA and C. jeikeium and C. jejuni | MRSA (M) |  | G B |  |  |  |  |  |  |  | 
PF-061: peptide having multiple activities (GYNSYKAVQDVKTHSEEQRVTAKK; Peptide with targeting and/or antimicrobial activity) | S. epidermidis; also recorded: S. pneumoniae |  | S. epidermidis (R) | G B |  |  |  | S. pneumoniae (R) | B. subtilis (R) | C. jejuni (R) |  | 
PF-064: peptide having multiple activities (DYYGKE; Peptide with targeting and/or antimicrobial activity) | E. coli | MRSA (M) | S. epidermidis (D) | G B |  |  |  |  |  |  |  | 
PF-065: peptide having multiple activities (LEKNTRDNYFIHAIDRIYINTSKGLFPESELVAWG; Peptide with targeting and/or antimicrobial activity) | M. luteus and E. coli and P. aeruginosa and C. albicans and MRSA and S. pneumoniae and C. jeikeium and C. jejuni | MRSA (R) | S. epidermidis (D) | G B | C. jeikeium (A) |  |  |  |  |  |  | 
PF-069: peptide having multiple activities (chain 1 FDPVPLKKDKSASKHSHKHNH; chain 2 FDPVPLKKDKSASKHSHKHNH; Peptide with targeting and/or antimicrobial activity) | E. faecalis; also recorded: C. jejuni |  |  | G B |  |  |  |  | B. subtilis (D) | C. jejuni (R) |  | 
PF-070: peptide having multiple activities (chain 1 SMVKSEIVDLLNGEDNDD; chain 2 SMVKSEIVDLLNGEDNDD; Peptide with targeting and/or antimicrobial activity) | S. epidermidis; also recorded: C. jejuni |  |  | G B |  |  |  |  | B. subtilis (D) |  |  | 
PF-074: peptide having multiple activities (chain 1 RDIHPIYFMTKD; chain 2 RDIHPIYFMTKD; Peptide with targeting and/or antimicrobial activity) |  | MRSA (M) | S. epidermidis (D) | G B |  |  |  |  |  |  | S. epidermidis and M. luteus and MRSA | 
PF-099: peptide having multiple activities (chain 1 EIIAYLEGRFANA; chain 2 EIIAYLEGRFANA; Peptide with targeting and/or antimicrobial activity) |  |  | S. epidermidis (D) | G B | C. jeikeium (C) |  |  |  |  |  | S. epidermidis; also recorded: M. luteus; also recorded: E. coli; also recorded: C. jeikeium | 
PF-123: peptide having multiple activities (chain 1 TTRPQVAEDRQLDDALKETFPASDPISP; chain 2 TTRPQVAEDRQLDDALKETFPASDPISP; Peptide with targeting and/or antimicrobial activity) |  |  | S. epidermidis (M) | G B |  |  |  |  |  |  | M. luteus; also recorded: E. coli | 
PF-128: peptide having multiple activities (chain 1 GIKVVAARFEEIQFSENFDSIILA; chain 2 GIKVVAARFEEIQFSENFDSIILA; Peptide with targeting and/or antimicrobial activity) |  |  | S. epidermidis (D) | G B |  |  |  |  |  |  | M. luteus; also recorded: P. aeruginosa; also recorded: E. faecalis | P. aeruginosa (C)
